Data: paper PMC9387934, “Randomized single oral dose phase 1 study of safety, tolerability, and pharmacokinetics of Iminosugar UV-4 Hydrochloride (UV-4B) in healthy subjects” (PLoS Neglected Tropical Diseases, 2022)
Like-named read-outs stand apart in the source and are kept apart here.

Assay: Phase 1a single ascending dose study: UV-4 plasma concentrations and PK parameters (LC-MS/MS, noncompartmental)
Format: in vivo
Settings: for Tmax / half-life / AUC(0-inf) / Cmax: both sexes, human, plasma; for AUC(0-inf): read-out: AUC(0-inf); for Cmax: read-out: Cmax
Protocol: UV-4 ((2R,3R,4R,5S)-2-(hydroxymethyl)-1-(9-methoxynonyl)piperidine-3,4,5-triol, also called N-(9’-methoxynonyl)-1-deoxynojirimycin, or MON-DNJ) hydrochloride was evaluated in a first-in-human, randomized, single-center, double-blind, placebo-controlled, parallel group, single ascending dose Phase 1a clinical trial in healthy subjects (Figs 1 and 2, ClinicalTrials.gov Identifier NCT02061358 https://clinicaltrials.gov/ct2/show/NCT02061358). The primary objective was to determine the safety and tolerability of a single-ascending oral dose of UV-4 hydrochloride (Fig 3). […] The secondary objective was to determine PK parameters describing absorption and elimination of UV-4 following a single oral dose of UV-4 hydrochloride. Eight cohorts of eight subjects each were enrolled and completed the study. In each cohort, six subjects received UV-4 as the hydrochloride; two received placebo. Subjects were screened against study eligibility criteria up to four weeks (Days -28 to -2) before admission to the clinic (Day -1). Dosing was performed on an inpatient basis. Subjects remained in clinic for 48 hours post-dosing for PK sample collection and safety assessments and were discharged from the clinic on Day 3. Subjects returned to the clinic on Day 4 for additional safety assessments, then again on Day 9 ± 1 for a final follow-up visit.
Eligible subjects were healthy males and females, age 18–45 years, with a body mass index between 18 and 30 kg/m^2 inclusive and a minimum body weight of 60 kg. Subjects were considered healthy based on medical history, physical exam, vital signs, 12-lead electrocardiogram (ECG), clinical laboratory tests (hematology, blood chemistry, urinalysis), viral serology, and drug and alcohol screening. Male and female subjects of childbearing potential were required to use adequate contraception over the course of the clinical trial. […] Only subjects who met all inclusion and none of the exclusion criteria prior to administration of the investigational product were enrolled into the study (no exemptions were granted). A total of 64 subjects were enrolled (eight cohorts of eight subjects each). In each of the eight cohorts, six subjects were randomized to receive a single dose of UV-4 (3 to 1000 mg, depending on cohort) as the hydrochloride salt, and two subjects to receive placebo. Cohort size of six active subjects was based on analysis that increasing cohort size above six in a first-in-human study gains little in the ability to observe a drug induced event, and results in observing more events that are not related to study drug. Two of the eight subjects in each cohort (sentinel subjects; one active and one placebo) received their doses at least 48 h before the remaining subjects in each cohort.
On each day of use, bulk drug substance (UV-4B for solubilization, SAI Life Sciences Ltd. Telangana, India) was removed from a single-use container, weighed at the study center, and solubilized in 20 mL sterile water for injection (SWFI) (Hospira Inc. Illinois, United States of America). Weight of solid drug substance was converted to dose of UV-4 by applying purity and salt correction factor per pharmacy manual when preparing the dosing solution. UV-4B solution was administered orally with 10 mL of taste-masking agent, OraSweet-SF (Paddock Laboratories LLC, Minneapolis, United States of America) in a total volume of 30 mL, to assist in maintaining study blinding. Placebo was SWFI (20 mL) plus OraSweet-SF (10 mL). Concentrations and doses were calculated and expressed as the active free base form, UV-4. This methodology is consistent with USP<1121>, which recommends that the strength of a drug product or preparation is expressed in terms of the active moiety. Following consumption of active or placebo solution, the dosing container was rinsed with 50 mL of tap water also consumed by subjects. […]

[1] = po, 3 mg, 3 mg single oral dose, Ar Mean

In the case of `COCCCCCCCCCN1C[C@H](O)[C@@H](O)[C@H](O)[C@H]1CO` [UV-4, N-(9’-methoxynonyl)-1-deoxynojirimycin], the “Time over which UV-4 plasma concentrations were quantifiable” value (3 mg, 5 of 6 subjects) is reported as 24 h, the “Time over which UV-4 plasma concentrations were quantifiable” value (3 mg, one subject) is reported as 36 h and the Tmax (oral, 3 to 1000 mg UV-4 dose range, read-out: Median time to reach maximum plasma concentration (tmax), range across dose groups) is reported as 30 to 60 min. For the same molecule, the half-life (oral, Phase 1a study, 3 to 1000 mg, read-out: Mean half-life, range across dose groups) was 488 to 720 min, the AUC(0-inf) [1] was 95.6 ng·h/mL and the Cmax [1] was 22.4 ng/mL. The half-life (po, 3 mg, 3 mg single oral dose, Ar Mean, read-out: t1/2 (converted)) was 642 min, the AUC(0-inf) (po, 3 mg, 3 mg single oral dose, Arithmetic Mean) was 95.6 ng·h/mL and the Cmax (po, 3 mg, 3 mg single oral dose, Geo Mean) was 22.1 ng/mL. For the same molecule, the half-life (po, 3 mg, 3 mg single oral dose, Geo Mean, read-out: t1/2 (converted)) was 618 min, the AUC(0-inf) (po, 3 mg, 3 mg single oral dose, Geometric Mean) was 94.6 ng·h/mL and the Tmax (po, 3 mg, 3 mg single oral dose, median, read-out: tmax) was 30 min. For the same molecule, the Cmax (po, 10 mg, 10 mg single oral dose, Ar Mean) was 84.6 ng/mL, the half-life (po, 10 mg, 10 mg single oral dose, Ar Mean, read-out: t1/2 (converted)) was 720 min and the AUC(0-inf) (po, 10 mg, 10 mg single oral dose, Arithmetic Mean) was 431 ng·h/mL. The Cmax (po, 10 mg, 10 mg single oral dose, Geo Mean) was 82.6 ng/mL, the half-life (po, 10 mg, 10 mg single oral dose, Geo Mean, read-out: t1/2 (converted)) was 714 min and the AUC(0-inf) (po, 10 mg, 10 mg single oral dose, Geometric Mean) was 420 ng·h/mL. The Tmax (po, 10 mg, 10 mg single oral dose, median, read-out: tmax) was 60 min, the Cmax (po, 30 mg, 30 mg single oral dose, Ar Mean) was 292 ng/mL and the half-life (po, 30 mg, 30 mg single oral dose, Ar Mean, read-out: t1/2 (converted)) was 600 min. The AUC(0-inf) (po, 30 mg, 30 mg single oral dose, Arithmetic Mean) was 1260 ng·h/mL, the Cmax (po, 30 mg, 30 mg single oral dose, Geo Mean) was 289 ng/mL and the half-life (po, 30 mg, 30 mg single oral dose, Geo Mean, read-out: t1/2 (converted)) was 600 min. The AUC(0-inf) (po, 30 mg, 30 mg single oral dose, Geometric Mean) was 1260 ng·h/mL, the Tmax (po, 30 mg, 30 mg single oral dose, median, read-out: tmax) was 30 min and the Cmax (po, 90 mg, 90 mg single oral dose, Ar Mean) was 946 ng/mL. For the same molecule, the half-life (po, 90 mg, 90 mg single oral dose, Ar Mean, read-out: t1/2 (converted)) was 624 min, the AUC(0-inf) (po, 90 mg, 90 mg single oral dose, Arithmetic Mean) was 3730 ng·h/mL and the Cmax (po, 90 mg, 90 mg single oral dose, Geo Mean) was 900 ng/mL. The half-life (po, 90 mg, 90 mg single oral dose, Geo Mean, read-out: t1/2 (converted)) was 612 min, the AUC(0-inf) (po, 90 mg, 90 mg single oral dose, Geometric Mean) was 3700 ng·h/mL and the Tmax (po, 90 mg, 90 mg single oral dose, median, read-out: tmax) was 30 min. The Cmax (po, 180 mg, 180 mg single oral dose, Ar Mean) was 2150 ng/mL, the half-life (po, 180 mg, 180 mg single oral dose, Ar Mean, read-out: t1/2 (converted)) was 522 min and the AUC(0-inf) (po, 180 mg, 180 mg single oral dose, Arithmetic Mean) was 7110 ng·h/mL. It also gave a Cmax (po, 180 mg, 180 mg single oral dose, Geo Mean) of 2060 ng/mL, a half-life (po, 180 mg, 180 mg single oral dose, Geo Mean, read-out: t1/2 (converted)) of 522 min and an AUC(0-inf) (po, 180 mg, 180 mg single oral dose, Geometric Mean) of 7090 ng·h/mL. The Tmax (po, 180 mg, 180 mg single oral dose, median, read-out: tmax) was 48 min, the Cmax (po, 360 mg, 360 mg single oral dose, Ar Mean) was 4570 ng/mL and the half-life (po, 360 mg, 360 mg single oral dose, Ar Mean, read-out: t1/2 (converted)) was 486 min. The AUC(0-inf) (po, 360 mg, 360 mg single oral dose, Arithmetic Mean) was 13800 ng·h/mL, the Cmax (po, 360 mg, 360 mg single oral dose, Geo Mean) was 4490 ng/mL and the half-life (po, 360 mg, 360 mg single oral dose, Geo Mean, read-out: t1/2 (converted)) was 486 min. For the same molecule, the AUC(0-inf) (po, 360 mg, 360 mg single oral dose, Geometric Mean) was 13700 ng·h/mL, the Tmax (po, 360 mg, 360 mg single oral dose, median, read-out: tmax) was 30 min and the Cmax (po, 720 mg, 720 mg single oral dose, Ar Mean) was 9920 ng/mL. The half-life (po, 720 mg, 720 mg single oral dose, Ar Mean, read-out: t1/2 (converted)) was 492 min, the AUC(0-inf) (po, 720 mg, 720 mg single oral dose, Arithmetic Mean) was 32900 ng·h/mL and the Cmax (po, 720 mg, 720 mg single oral dose, Geo Mean) was 9760 ng/mL. The half-life (po, 720 mg, 720 mg single oral dose, Geo Mean, read-out: t1/2 (converted)) was 492 min, the AUC(0-inf) (po, 720 mg, 720 mg single oral dose, Geometric Mean) was 32800 ng·h/mL and the Tmax (po, 720 mg, 720 mg single oral dose, median, read-out: tmax) was 48 min. For the same molecule, the Cmax (po, 1000 mg, 1000 mg single oral dose, Ar Mean) was 13100 ng/mL, the half-life (po, 1000 mg, 1000 mg single oral dose, Ar Mean, read-out: t1/2 (converted)) was 528 min and the AUC(0-inf) (po, 1000 mg, 1000 mg single oral dose, Arithmetic Mean) was 43100 ng·h/mL. It also gave a Cmax (po, 1000 mg, 1000 mg single oral dose, Geo Mean) of 13000 ng/mL, a half-life (po, 1000 mg, 1000 mg single oral dose, Geo Mean, read-out: t1/2 (converted)) of 516 min and an AUC(0-inf) (po, 1000 mg, 1000 mg single oral dose, Geometric Mean) of 42800 ng·h/mL. The Tmax (po, 1000 mg, 1000 mg single oral dose, median, read-out: tmax) was 60 min and the “Time over which UV-4 plasma concentrations were quantifiable” value (doses of 10 mg or higher, entire collection interval) was 48 h.
